# Reference: patent publication US5543410A, “Pharmacological use of phthaloylhydrazide derivatives; combination and application thereof” (L.I.M.A.D. Limited, priority 1993, dated 1996)
# Like-named read-outs stand apart in the source and are kept apart here.
# How the values were obtained:
# [1] = model systems (micellar phase); times less
# Description: (§1) In models corresponding to acute purulent inflammation (wounds) caused by inoculation of a suspension of pathogenic microbes, such as E. coli and S. aureus, pentane production within air exhaled by the respective animals was measured.
# [2] = system: acute purulent inflammation (wounds) caused by E. coli and S. aureus; conditions: single administration
# Description: as §1
# [3] = system: peroxidation of blood plasma
# Description: as §1
# [4] = pharmacokinetics, plasma half-life; assay type: in vivo
# [5] = system: hemorrhoids
# Excerpt: (§2) Similarly, anal fissures have represented a difficult problem for modern medicine to resolve. In this instance, the inflammatory component is associated with a morphological defect.
# The drug was used in the form of suppositories in 0.1 g doses once daily, in order to treat acute hemorrhoids in patients whose ages were from twenty to sixty years.
# [6] = system: anal fissures
# Description: as §2
# The drug was administered to this group of patients in the form of suppositories, in doses of 100 mg every twelve hours, during a five-day period.
# [7] = system: inflammation of the mucosae, chronic tonsillitis; test: inflammation of the mucosae / chronic tonsillitis (gargling); assay type: in vivo; conditions: gargling solution
# [8] = system: AIDS
# Description: Treatment began with intramuscular administration of 100 mg doses of the drug, once daily.
# The daily dosage of the drug was then increased to 400 mg.
# [9] = system: suppuration of a paracolostomy incision
# Description: The patient cited pain in the region affected by infiltration, and an increase in body temperature was observed. A suppository containing 200 mg of the drug was applied to the incision. […] An identical dose of the drug was administered again twelve hours later.
# [10] = system: anal adenocarcinoma
# Excerpt: Kh., a patient who was […], had been diagnosed with an anal adenocarcinoma seven months earlier.
# The diagnosis had been verified histologically. The patient cited pain in the anus, constipation, difficulty in defecating, and secretion of mucus and blood from the anus. On account of the patient's categorical refusal to undergo surgery for abdominoperineal excision of the rectum, radiation therapy had been provided in doses of […]. […] Forty days later, the patient underwent another cycle of radiation therapy, with doses of […]. During the next thirty days, the drug was administered in doses of 100 mg every four hours, in the form of rectal suppositories. […] For the next thirty days, the dosage of the drug was increased, and intramuscular administration of 100 mg per day was provided for this patient, along with a rectal suppository (100 mg).
# [11] = system: non-specific ulcerative colitis and Crohn's disease
# Description: These patients complained of periodic worsening of their symptoms over periods of three to five years.
# 100 mg per day of the drug was administered intravenously to these patients for three days.
# On subsequent days, intramuscular administration of the drug was provided once daily, along with a 100 mg rectal suppository.
# [12] = general pharmacological / toxicological assessment; assay type: in vivo
# [13] = system: pregnant female rats; conditions: 60 mg/kg single dose, intraperitoneal
# Description: Tests pertaining to teratogenicity and embryotoxicity were performed upon fifty-eight pregnant female rats. A single dose (60 mg/kg) was injected intraperitoneally on the first, third, seventh, tenth, fourteenth, or seventeenth days of gestation. These rats were decapitated on the twenty-first day of gestation, and uteri and fetuses were examined.
# [14] = system: male mice; conditions: 30 and 60 mg/kg
# Description: Doses of 30 mg/kg and 60 mg/kg according to body weight were used for studying pharmacological properties in relation to the central nervous system. Selection of this dosage level was based upon criteria in terms of safety in using drugs.
# Neuropharmacological effects were studied in sexually mature male mice from unspecified strains. A solution of the drug was administered intraabdominally to these mice, with weights of 18.0 g to 20.0 g, and neuropharmacological effects were studied in terms of changes in the natural orientation reflex, in induced aggressiveness, and in muscle tone. Changes in natural orientation were recorded according to current methods. For determining the drug's influence upon induced aggressiveness, the electrical stimulation method (an electrical current which caused pain was transmitted) was adopted.
# Changes in muscle tone were measured according to the "pivot pin" method.
# [15] = system: convulsions caused by Corazolum and strychnine; conditions: 30 and 60 mg/kg
# [16] = system: male rats; conditions: rat, in vivo
# Description: Blood pressure levels were tape-recorded, by means of an electrical kymograph.
# At the same time, electrocardiograms for the second standard position were recorded, along with frequency and depth of breathing by means of a Morey capsule.
# [17] = system: leucocytes; conditions: inflammation of the cornea
# [18] = system: macrophages; conditions: in vitro and in vivo; SV-40 affected cancer cells, glioma cultures
# [19] = system: skin diseases; conditions: 1 to 2 percent solution, two or three days
# [20] = system: psoriasis; conditions: 2 to 5 mg/kg
# [21] = system: proctosigmoiditis
# Description: Treatment was provided for nine patients affected by proctosigmoiditis; their ages were between forty and fifty-five years. These patients had complained of irregular defecation, protrusion of the mucosae from the anus, and minor pain in the ileum, on the left side.
# During visual examination of the intestine, it was observed that the mucosae of the rectal and sigmoid portions of the colon were affected by edema. In addition, images of the capillary network were blurred, and a fibrous film was present within limited segments. The drug was administered to these patients in the form of rectal suppositories, in doses of 100 mg per day, subsequent to enemas.
# [22] = system: acute intestinal infections
# Description: 200 mg of the drug in an isotonic aqueous solution was administered to this patient.
# [23] = system: cancer affecting the left breast, metastatic tumors
# Description: During subsequent years, they had undergone radiation therapy and chemotherapy on multiple occasions on account of metastatic tumors.
# On account of the severity of the patient's condition, intramuscular administration of the drug in 100 mg doses every two days was initiated.
# [24] = system: dermatitis of unknown etiology
# Description: The patient was treated for fourteen days.
# The affected cutaneous areas were treated three times daily with a water-soluble emulsion containing 30 mg of the drug, and, on alternating days, suppositories containing 50 mg of the drug (5 mg/kg according to weight) were administered rectally.
# [25] = after five to six days of treatment
compound,measurement,setting,value
Nc1cccc2c(=O)[nH][nH]c(=O)c12,antioxidant effectiveness less than previously identified antioxidants,[1],thirty to fifty
same,pentane level attained,[2],until a normal level was attained
same,time to reduction in pentane in exhaled air,[2],thirty to sixty
same,antioxidant effectiveness versus known antioxidants,[3]; blood plasma,"significantly superior to known antioxidants such as dibunol, alphatocopherol, and superoxydismutaze (SOD)"
same,increase in retardation constant for peroxidation of blood plasma,[3]; two to five minutes after administration,ten to twelve
same,duration of activity in hydrophobic phase of living membranes,[4]; in vivo,remains active for several hours
same,half-life,[4]; intramuscular and rectal,forty to sixty
same,half-life within blood plasma,[4]; intravenous,five to fifteen
same,recovery,[5]; 0.1 g once daily,The patients recovered fully
same,time until inflammatory process and enlargement of hemorrhoidal nodes disappeared,[5]; 0.1 g once daily,fifth
same,time until anal pain ceased,[5]; 0.1 g suppositories once daily,Seventeen to thirty
same,time to alleviation of pain syndrome,[5]; rectal administration,thirty
same,inflammatory process and edema,[5]; twelve hours,significant shrinkage of the inflammatory process and reduction of edema in hemorrhoidal nodes
same,time until pain ceased,[6]; 100 mg suppositories every twelve hours,twenty to thirty
same,recurrences,[6]; [25],Recurrences were not observed
same,regeneration of the mucosae,[6]; [25],regeneration of the mucosae was visually observable
same,defecation and sphincter spasms,[6]; after the third suppository,"defecation became painless, and spasms affecting the sphincter diminished"
same,recovery,[6]; by the fifth day,the patients had practically recovered
same,other symptoms,[6]; rectal administration,other symptoms were also eliminated by the end of the first day of treatment
same,time to significant alleviation of the pain syndrome,[6]; rectal administration,twenty to forty
same,inflammation of the mucosae,[7],favorable results were obtained
same,therapeutic effects,"[8]; 100 mg intramuscular once daily, three days",no therapeutic effects had been observed
same,complications of AIDS,"[8]; 5 to 15 mg/kg daily, extended period",significant prevention or reduction of complications
same,further symptoms,[8]; continued daily administration,further symptoms of the disease did not appear
same,therapeutic action,[8]; daily dose doubled,still not observable
same,effectiveness of standard doses,[8]; standard doses for inflammatory diseases,limited effectiveness
same,time to decline of temperature,[9]; 200 mg suppository,Six
same,time until pain ceased,[9]; 200 mg suppository applied to incision,twenty to thirty
same,wound,[9]; six days of treatment,the wound was wholly devoid of pus
same,edema within soft tissues,[9]; twenty-one hours after commencement,had decreased significantly
same,tumor size,"[10]; 100 mg every four hours rectal, thirty days, after radiation",reduction of the tumor was observed
same,reduction of anal tumor in relation to its initial dimensions,"[10]; 100 mg intramuscular per day plus 100 mg suppository, further thirty days",two-thirds
same,tumor dimensions and intoxication (conclusion),[10]; combination with radiation therapy,reduction of the tumor's dimensions was therefore obtained within a brief period and symptoms of intoxication were eliminated
same,general condition,[10]; in vivo,an improvement of the patient's general condition was observed
same,time until abdominal and joint pain lessened,[11]; 100 mg per day intravenous,Thirty
same,frequency of defecation,[11]; first three days,frequency of defecation was reduced
same,frequency of defecation,[11]; fourteenth day,once or twice
same,rectosigmoidoscopy finding,[11]; in vivo,"did not reveal the presence of pus or blood, although traces of an inflammatory process were observed within mucous membranes"
same,frequency of defecation,[11]; sixth day,two or three
same,pain and skin eruptions,[11]; sixth day,"They were no longer experiencing pain, their skin eruptions had disappeared"
same,toxicity,[12]; acceptable dosages,wholly non-toxic
same,level of pharmacological activity,[12]; determined experimentally,higher level of pharmacological activity
same,storage period (stable),anhydrous conditions,> 1 year
same,expiration period,aqueous solution,> ten to twenty
same,fetal abnormalities,[13],No fetal abnormalities were found
same,threshold for sensitivity to pain,[14],did not alter the threshold for sensitivity to pain
same,natural orientation reflex,[14]; intraabdominal,did not suppress the natural orientation reflex
same,muscle tone,[14]; pivot pin method,did not cause changes in muscle tone
same,prevention of convulsions,[15],did not prevent convulsions
same,average fluctuations in blood pressure levels in comparison with initial levels,[16],2.79±0.72
same,time to return of blood pressure to initial level,[16],thirty
same,rise in blood pressure in relation to the initial level,[16]; iv,1.57±5.93%
same,leucocyte adhesion properties and chemotaxis,[17],An increase in leucocyte adhesion properties and intensification of chemotaxis
same,transformation of macrophages into killer cells,[18],transformation of a certain portion of macrophages into killer cells
same,elimination of symptoms,[19],sufficient to eliminate symptoms of various diseases
same,development of psoriasis,[20],did not substantially influence the development of psoriasis
same,time until symptoms and pain disappeared,[21]; 100 mg per day rectal suppositories,one
same,complaints,[21]; by the seventh day,the patients no longer complained of symptoms
same,rectosigmoidoscopy finding,[21]; checkups,renewal of normal conditions was observed within the rectal mucosae and within the sigmoid colon
same,"time to improvement, decrease in abdominal pain, cessation of diarrhea",[22]; 200 mg in isotonic aqueous solution,Forty to fifty
same,fecal cultures for bacillary dysentery and Salmonella,[22]; in vivo,negative
same,symptoms of intoxication,[22]; one day after admission,all of the symptoms of intoxication had disappeared
same,intensity of pain,"[23]; after first injection, 100 mg intramuscular every two days",the intensity of their pain decreased significantly
same,general condition,[23]; alternate days intramuscular,a steady improvement in the patient's general condition was observed
same,"urine, urination, perspiration",[23]; in vivo,"their urine became more dense, frequent urination began, and their perspiration acquired a rather foul odor"
same,"vomiting, stools",[23]; in vivo,"vomiting began, and the patient's stools were malodorous"
same,edema,[23]; thirteenth and fourteenth days,had diminished significantly
same,condition and appetite,[23]; twentieth day,"the patient's condition improved, and their appetite was restored"
same,time to completed epithelization,"[24]; 30 mg emulsion three times daily, 50 mg suppositories on alternating days",fourteenth
same,affected cutaneous areas,[24]; after the second day,began to become drier
